# Data as given in patent US20100130909A1, “TREATMENT OF BARRETT'S ESOPHAGUS USING PHOTODYNAMIC THERAPY” (HEALTH RESEARCH, INC., priority 2007, published 2010).
# Where two headings read alike, the source gives them in different places.
# How the values were obtained:
# [1] = test system: Barrett's esophagus tissue; assay: phase I/II trial of photodynamic therapy using HPPH in patients with Barrett's esophagus; format: in vivo, human; details: 30 patients
# Experimental: injecting HPPH in a physiologically compatible medium into a patient having Barrett's esophagus tissue to provide a dose level of 3 through 5 mg/m^2 of body surface area, preferably 3 through 4 mg/m^2 of body surface area,
# waiting for a time period of 24 through 60 hours to permit preferential absorption of the
# HPPH into Barrett's esophagus tissue, and exposing the Barrett's esophagus tissue to light at a wavelength of about 670±5 nm at an energy of from 75 to 200 Joules/cm, preferably 75 to 200 Joules/cm.
# Injection of the HPPH is preferably accomplished intravenously usually over a time period of 0.75 to 3 hours in a physiologically compatible medium. The time period is functionally dependent upon rate of infusion and dose level desired. The concentration is preferably 0.5 through 1.5 mg/ml in medium and the medium is preferably 0.1% polysorbate 80, 2% ethyl alcohol and 5% glucose in normal saline.
# Exposure is accomplished using a fiber optic carrying laser light emitted by a laser. The laser may be any suitable laser emitting light at the wavelength and energy desired, e.g. a dye or diode laser. Exposure may be adjusted by length of time of exposure and/or adjustment of light intensity.
# Using the above parameters, a phase I/II trial using HPPH and a phase III trial using PHOTOFRIN™, the latter approved by the United States Food and Drug Administration, the following results for response of Barrett's esophagus were obtained.
# [2] = test system: Barrett's mucosa; details: cited from earlier work; for Treatment response: CR, PDT + NdYAG thermal ablation: compilation of 1-3 PDT treatments + thermal ablation of small residual islands; for Complications: esophageal stricture / Treatment response: CR (no Barrett's esophagus tissue remained after treatment), PDT only: compilation of 1-3 PDT treatments; for Treatment response: CR (no Barrett's esophagus tissue remained after treatment), PDT only: porfimer sodium 2 mg/kg
# [3] = only 1 PDT treatment, percent of patients
# [4] = 100 patients, percent of patients
# [5] = 100 patients, percent of patients, listed as porfimer sodium
Substance,"Treatment response: patients with >90 to <100% ablation, PDT only ([1]; only 1 PDT treatment, does not include NdYAG thermal ablation)","Complications: esophageal stricture [1, 3]","Treatment response: CR (no Barrett's esophagus tissue remained after treatment), PDT only [1, 3]",Complications: sunburn ([1]; percent of patients),"Complete ablation of Barrett's mucosa (PDT only or with thermal ablation) ([2]; 100 patients, 2 mg/kg, 630 nm, 100 to 250 J/cm, percent of patients)","Treatment response: CR, PDT + NdYAG thermal ablation [2, 4]","Treatment response: CR, PDT + NdYAG thermal ablation [2, 5]","Complications: esophageal stricture [2, 4]","Complications: esophageal stricture [2, 5]","Treatment response: CR (no Barrett's esophagus tissue remained after treatment), PDT only ([2]; 100 patients, 630 nm, 100 to 250 J/cm, percent of patients)","Treatment response: CR (no Barrett's esophagus tissue remained after treatment), PDT only ([2]; 100 patients, 630 nm, 100 to 250 J/cm, percent of patients, listed as porfimer sodium)","Complications: sunburn [2, 4]","replacement of Barrett's mucosa with normal esophageal mucosa ([2]; all 100 patients treated, 2 mg/kg, 630 nm, 100 to 250 J/cm, percent of mucosa)"
3-(1-hexyloxy) ethyl-derivative of pyropheophorbide-a [HPPH],47% (>90 to <100%,12%,4% CR,<7%,–,–,–,–,–,–,–,–,–
porfimer sodium [PHOTOFRIN],–,–,–,–,43%,35% CR,35%,34%,34%,8% CR,8%,25-30%,75-80%
